Laboratory results reported in patent publication US8263643B2, “Polyphenol compounds with modulating neurotransmitter release” (Sungkyunkwan University Foundation for Corporate …, priority 2007, dated 2012).

Columns and labels:
[1] = molecular target: T1, SNARE complex (SNAP25, SynH3, Vps) (UniProt P60879+P63045+Q16623); assay: SDS-PAGE analysis of SNARE complex formation; assay type: biochemical; conditions: for Inhibition of SNARE complex formation (in words): FIG. 2, concentration series; for SNARE complex formation (%): control = 100, footnote: [phenolic compound]:SNAP-25 = 1:1, SNARE proteins 10 μM each, polyphenol 100 μM, room temperature 30 min; for Ratio for inhibition by 50% (IR50), SNARE complex formation: molar concentration ratio phenolic compound:SNAP-25, average of at least three measurements
T1 construct: SynH3 (AF217197); Vps (NM012663); made in house; host or cells: E. coli (Codon (+) RIL, Novagen)
Method: A SNARE complex is strong enough so as not to be untwisted by SDS. On the basis of such a property, a SDS-PAGE analysis was performed in order to determine the formation of a SNARE complex. Polyphenol compounds used in the present Example were purchased from Sigma-Aldrich, Wako Chemical, and Extrasynthese.
In order to produce SNARE proteins, SNARE proteins, such as, SNAP25 (NM011428), syntaxin 1A (AF217197), VAMP2 (NM012663), SynH3 (AF217197), and Vps (NM012663), were purified in biologically transformed E. coli (Codon (+) RIL, Novagen).
Then, the materials were quickly mixed by a vortex, and were reacted at room temperature for 30 minutes. […]

PC12 cell = assay: Inhibition of [3H]-norepinephrine release from PC12 cells; assay type: cell-based; conditions: normal PC12 cells, FIG. 4
Method: PC12 cells were cultured in a Ham's F12K medium where 10% […], 5% fetal bovine serum, and antibiotics were added in a collagen-coated plate (60 mm dish). In subculture, after sucking of the medium, 2 ml of PBS was added and cells were separated from a dish wall through pipetting. Then, centrifugation with 1,000×g for 5 minutes was carried out to obtain cells. A new medium was introduced, and a cell pellet was dispersed through pipetting and was loaded onto a new culture plate. And culture was carried out at 37° C. in a culture medium providing 5% CO2 gas. [^3H]-norepinephrine used for the experiment was purchased from Amersham. After sucking of the medium in the plate of PC12 cells, PBS was added and cells were separated from a plate wall. Then, the number of cells was measured by a hemacytometer, and the cells were dispersedly inoculated into a new medium at a concentration of 2×10^5 cell/ml. After 24 hours, a buffer solution ([^3H]—NE, 1.5 μCi/ml) for assay of norepinephrine was added, and then the cells were induced in a carbon dioxide incubator for 90 minutes. After the reaction, the buffer solution was removed and the cells were washed three times with PBS. Then, a new medium and each polyphenol compound were loaded and a reaction was performed for 30 minute. […]

[2] = molecular target: T2, membrane fusion caused by SNARE (SNAP25, syntaxin 1A, VAMP2) (UniProt P60879+P63045+Q16623); assay: Membrane fusion assay with SNARE-reconstituted liposomes (fluorescence); assay type: biochemical; conditions: for remaining activity at 20 µM: 20 μM phenolic compound, 100% = no inhibitor added, read-out: Membrane fusion caused by SNARE (% of fusion without inhibitor); for Reduction of membrane fusion (in words): FIG. 3; for Ratio for inhibition by 50% (IR50), membrane fusion: molar concentration ratio phenolic compound:SNAP-25, average of at least three measurements
T2 construct: made in house; host or cells: E. coli (Codon (+) RIL, Novagen)
Method: In order to produce SNARE proteins, SNARE proteins, such as SNAP25 (NM011428), syntaxin 1A (AF217197), and VAMP2 (NM012663), were purified in biologically transformed E. coli (Codon (+) RIL, Novagen).
In order to prepare liposome (fine membrane) marked with a fluorescent substance, POPC (62 mol %), DOPS (35 mol %), NBD-PS (1.5 mol %) and a fluorescent substance Rhodamin-PE (1.5 mol %) were mixed to obtain 10 mM of liposome (v-vesicle). Also, in order to prepare a liposome not marked with a fluorescent substance, DOPS and POPC were mixed in a molar concentration ratio of 35:65 to obtain 50 mM of liposome (t-vesicle). In order to prepare a complex of the purified SNAP25 and syntaxin 1a, the SNAP25 and the syntaxin 1a were mixed in a molar concentration ratio of 1:1, and then were reacted at room temperature for 1 hour. Then, the resultant mixture and the liposome not marked with a fluorescent substance were mixed in a molar ratio of 100:1. The VAMP2 and the liposome marked with a fluorescent substance were mixed in a molar ratio of 50:1. Then, each of the two kinds of liposomes was dialyzed by using 10 kDa dialyzing membrane through agitation at 4° C. for 24 hours, and the liposomes were mixed in a ratio of 3:7 (v-vesicle t-visicle). Next, fluorescence was measured by using a fluorometer (SpectraMax M2 manufactured by Molecular Device).
Herein, 100% indicates the degree of membrane fusion in the state where no inhibitor was added. As the value is smaller, the inhibiting degree is higher.

T2 sequence (P60879 whole entry, the tested form may be a part): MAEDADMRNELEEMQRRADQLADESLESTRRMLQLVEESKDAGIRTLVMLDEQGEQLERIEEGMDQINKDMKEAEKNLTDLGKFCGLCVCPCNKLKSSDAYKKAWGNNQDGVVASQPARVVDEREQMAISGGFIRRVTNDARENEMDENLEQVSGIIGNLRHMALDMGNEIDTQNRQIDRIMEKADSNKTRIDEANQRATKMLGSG
T2 sequence (Q16623 whole entry, the tested form may be a part): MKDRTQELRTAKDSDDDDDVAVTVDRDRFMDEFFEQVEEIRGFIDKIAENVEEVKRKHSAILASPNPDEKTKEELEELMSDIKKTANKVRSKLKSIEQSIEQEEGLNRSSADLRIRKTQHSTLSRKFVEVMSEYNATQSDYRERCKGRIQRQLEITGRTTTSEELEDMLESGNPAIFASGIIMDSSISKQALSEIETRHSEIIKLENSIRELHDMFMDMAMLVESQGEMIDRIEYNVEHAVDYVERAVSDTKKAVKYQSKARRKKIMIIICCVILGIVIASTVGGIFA
T2 sequence (P63045 whole entry, the tested form may be a part): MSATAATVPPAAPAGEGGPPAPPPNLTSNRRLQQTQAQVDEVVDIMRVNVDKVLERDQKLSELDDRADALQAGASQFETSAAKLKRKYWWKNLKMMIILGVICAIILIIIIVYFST
T1 sequence (P60879 whole entry): as the sequence (P60879 whole entry, the tested form may be a part) above
T1 sequence (Q16623 192-254 limits assumed): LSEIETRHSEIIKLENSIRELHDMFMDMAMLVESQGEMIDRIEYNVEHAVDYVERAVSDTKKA
T1 sequence (P63045 2-94 limits assumed): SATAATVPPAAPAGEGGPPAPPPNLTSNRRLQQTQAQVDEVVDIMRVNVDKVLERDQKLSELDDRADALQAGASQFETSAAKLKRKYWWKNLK

SNARE complex formation (%) [1] [%]	remaining activity at 20 µM [2] [%]	SMILES	Inhibition of SNARE complex formation (in words) [1]	Ratio for inhibition by 50% (IR50), SNARE complex formation [1]	Norepinephrine release inhibiting effect (in words) (PC12 cell)	Reduction of membrane fusion (in words) [2]	Ratio for inhibition by 50% (IR50), membrane fusion [2]
72.13 ± 10.13	43.9 ± 8.38	O=c1c(O)c(-c2cc(O)c(O)c(O)c2)oc2cc(O)cc(O)c12 [Myricetin]	inhibit the formation of a SNARE complex by 50% at a low concentration	14.9	relatively high norepinephrine release inhibiting effects	can reduce membrane fusion	0.79
92.86 ± 9.53	96.7 ± 10.6	C[C@@H]1O[C@@H](OC[C@H]2O[C@@H](Oc3c(-c4ccc(O)c(O)c4)oc4cc(O)cc(O)c4c3=O)[C@H](O)[C@@H](O)[C@@H]2O)[C@H](O)[C@H](O)[C@H]1O [Rutin]	–	–	–	–	–

SMILES	SNARE complex formation (%) [1] [%]	remaining activity at 20 µM [2] [%]	Inhibition of SNARE complex formation (in words) [1]	Ratio for inhibition by 50% (IR50), SNARE complex formation [1]	Norepinephrine release inhibiting effect (in words) (PC12 cell)	Reduction of membrane fusion (in words) [2]	Ratio for inhibition by 50% (IR50), membrane fusion [2]
O=C(/C=C/c1ccc(O)c(O)c1)c1ccc(O)cc1O [Butein]	88.45 ± 7.09	16.9 ± 2.98	inhibit the formation of a SNARE complex by 50% at a low concentration	30.5	relatively high norepinephrine release inhibiting effects	can reduce membrane fusion	0.81
